From the supplement of paper PMC7840683
Structures can show the parent of a compound that is named as a salt. ± gives the standard deviation of the averaged measurements.

System: HepaRG
Assay: LDH release cytotoxicity, % of total lysis control; higher = more cytotoxic
Settings: 48 h
Outline: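 Single-lot HepaRG cells in collagen I-coated 96-well plates were treated for 48 h in serum-free induction medium containing 0.5% DMSO with test chemicals in eight-point half-log series up to 100 µM. For total lysis, wells received 0.1% Triton X. LDH in 50 µL spent medium was assayed by resorufin fluorescence with CytoTox-ONE. Percent cytotoxicity was normalized to the on-plate vehicle and total lysis controls, with duplicates averaged.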

SMILES	LDH release cytotoxicity (0.03162 µM) [%]	LDH release cytotoxicity (0.1 µM) [%]	LDH release cytotoxicity (0.3162278 µM) [%]	LDH release cytotoxicity (1 µM) [%]	LDH release cytotoxicity (3.16228 µM) [%]	LDH release cytotoxicity (10 µM) [%]	LDH release cytotoxicity (31.6228 µM) [%]	LDH release cytotoxicity (100 µM) [%]	other results
CCOc1cc(C(C)(C)C)ccc1C1COC(c2c(F)cccc2F)=N1 (centres undefined) [Etoxazole]	–	–	–	–	–	–	–	–	LDH release cytotoxicity (0.020871 µM): -3.18 ± 0.75%; LDH release cytotoxicity (0.066 µM): -1.79 ± 0.038%; LDH release cytotoxicity (0.20871 µM): -2.56 ± 0.37%; LDH release cytotoxicity (0.66 µM): -3.05 ± 0.51%; LDH release cytotoxicity (2.0871 µM): -2.64 ± 0.86%; LDH release cytotoxicity (6.6 µM): -2.88 ± 0.43%; LDH release cytotoxicity (20.871 µM): -2.37 ± 0.075%; LDH release cytotoxicity (66 µM): 5.91 ± 0.27%
N=C(Nc1ccccc1)Nc1ccccc1 [1,3-Diphenylguanidine]	-0.803 ± 1	-2.15 ± 0.34	-1.51 ± 0.42	-1.87 ± 1.8	-1.59 ± 0.016	-1.1 ± 0.56	-1.1 ± 0.68	0.505 ± 0.92	–
O=C(NC(=O)c1cc(F)c(F)cc1Cl)Nc1cc(F)ccc1N1CCC(C(=O)O)CC1 [AVE2865]	–	–	–	–	–	–	–	–	LDH release cytotoxicity (0.01581 µM): 0.296 ± 0.54%; LDH release cytotoxicity (0.05 µM): -1.08 ± 0.4%; LDH release cytotoxicity (0.1581139 µM): -1.31 ± 0.41%; LDH release cytotoxicity (0.5 µM): -0.965 ± 0.11%; LDH release cytotoxicity (1.5811388 µM): -1.15 ± 0.067%; LDH release cytotoxicity (5 µM): -0.168 ± 0.023%; LDH release cytotoxicity (15.8114 µM): 0.386 ± 0.34%; LDH release cytotoxicity (50 µM): 0.68 ± 0.52%
CCC(=C(c1ccccc1)c1ccc(OCCN(C)C)cc1)c1ccccc1 [Tamoxifen citrate]	–	–	–	–	–	–	–	–	LDH release cytotoxicity (0.02893 µM): -0.702 ± 0.89%; LDH release cytotoxicity (0.0915 µM): -0.863 ± 0.61%; LDH release cytotoxicity (0.289348 µM): -1.43 ± 0.082%; LDH release cytotoxicity (0.915 µM): -1.01 ± 0.67%; LDH release cytotoxicity (2.89348 µM): 0.0489 ± 0.65%; LDH release cytotoxicity (9.15 µM): 0.563 ± 0.037%; LDH release cytotoxicity (28.9348 µM): 9.57 ± 0.34%; LDH release cytotoxicity (91.5 µM): 88.7 ± 7.3%
CN(C)c1ccc(N=NS(=O)(=O)O)cc1 [Fenaminosulf]	-1.38 ± 0.17	-1.18 ± 1.2	-1.97 ± 0.02	-2.42 ± 0.11	-2.64 ± 0.11	-3.4 ± 0.27	-3.39 ± 0.36	-3.64 ± 0.36	–
OCc1ccccc1 [Benzyl alcohol]	-0.977 ± 0.76	-1.47 ± 0.31	-1.57 ± 1.4	-2.41 ± 1.3	-1.69 ± 0.91	-1.73 ± 1.6	-1.32 ± 1.4	-1.07 ± 1.2	–
NC(=O)N(O)C1COc2cc(OCc3ccccc3)ccc21 (centres undefined)	–	–	–	–	–	–	–	–	LDH release cytotoxicity (0.02846 µM): -1.76 ± 0.2%; LDH release cytotoxicity (0.09 µM): -2.99 ± 1.7%; LDH release cytotoxicity (0.284605 µM): -1.03 ± 1.1%; LDH release cytotoxicity (0.9 µM): -2.27 ± 0.15%; LDH release cytotoxicity (2.84605 µM): -0.514 ± 0.72%; LDH release cytotoxicity (9 µM): 0.238 ± 0.36%; LDH release cytotoxicity (28.4605 µM): 3.46 ± 0.72%; LDH release cytotoxicity (90 µM): 22.46 ± 0.1%
Cc1ccc(-c2c(Cl)nc(C#N)n2S(=O)(=O)N(C)C)cc1 [Cyazofamid]	1.31 ± 1.8	-1.5 ± 0.69	-1.4 ± 1.1	-0.689 ± 0.31	-1.5 ± 0.35	43.2 ± 2.3	52.8 ± 0.71	53.7 ± 2.8	–
O=C(Nc1ccccc1)Nc1cnns1 [Thidiazuron]	-1.24 ± 0.048	-0.715 ± 0.86	-0.562 ± 0.16	-0.873 ± 0.82	-1.15 ± 0.018	-0.652 ± 1.3	-0.0499 ± 1.6	17.6 ± 3.5	–
Nc1c(Cl)c(F)nc(OCC(=O)O)c1Cl [Fluroxypyr]	-0.285 ± 0.61	-1.46 ± 1.1	-1.77 ± 1	-1.29 ± 0.69	-1.07 ± 0.26	-0.274 ± 0.24	0.368 ± 0.6	1.75 ± 0.91	–
c1ccc2c(c1)-c1cccc3c1c-2cc1ccccc13 [Benzo(b)fluoranthene]	-1.73 ± 0.79	-2.8 ± 0.051	-1.72 ± 0.55	-2.85 ± 1	-1.02 ± 0.32	1.06 ± 1.1	5.33 ± 2.5	5.52 ± 2.2	–
CC(C)N(Cc1ccccc1)C(=O)C(C)(C)C [Butam]	-0.681 ± 0.21	-1.54 ± 0.98	-1.1 ± 0.59	-0.413 ± 0.43	-0.189 ± 0.29	0.285 ± 0.9	0.032 ± 0.83	0.934 ± 0.57	–
CCOC(=O)CC(O)(CC(=O)OCC)C(=O)OCC [Triethyl citrate]	-0.555 ± 0.32	-0.568 ± 0.47	0.176 ± 0.48	-0.693 ± 0.16	-0.115 ± 0.89	0.0535 ± 0.21	-0.467 ± 0.89	1.14 ± 0.85	–
CCc1cc(SCc2sc(-c3ccc(C(F)(F)F)cc3)nc2CN2CCN(c3ccc(OC)cc3)CC2)ccc1OCC(=O)O	-1.41 ± 0.0016	-1.04 ± 0.17	-0.879 ± 1.1	-1.49 ± 0.045	-2.29 ± 0.43	21 ± 2.3	70.2 ± 1.2	84 ± 2.7	–
CS(=O)(=O)NC(=O)c1cc(Oc2ccc(C(F)(F)F)cc2Cl)ccc1[N+](=O)[O-] [Fomesafen]	-1.12 ± 1.1	-1.48 ± 0.59	0.3 ± 0.32	-0.63 ± 0.72	-0.773 ± 0.02	0.708 ± 0.54	0.985 ± 0.17	3.41 ± 0.9	–
CCOP(=S)(Oc1ccc([N+](=O)[O-])cc1)c1ccccc1 (centres undefined) [EPN]	-0.935 ± 0.29	-1.31 ± 0.65	-1.61 ± 1	-1.96 ± 0.085	-1.14 ± 0.37	-0.361 ± 0.0065	0.629 ± 0.14	5.51 ± 0.88	–
CCCCOC(=O)C(C)Oc1ccc(Oc2ccc(C(F)(F)F)cn2)cc1 (centres undefined) [Fluazifop-P-butyl]	–	–	–	–	–	–	–	–	LDH release cytotoxicity (0.0317809 µM): -1.34 ± 1.1%; LDH release cytotoxicity (0.1005 µM): -0.704 ± 2.2%; LDH release cytotoxicity (0.317809 µM): -1.02 ± 2.1%; LDH release cytotoxicity (1.005 µM): -0.805 ± 2.7%; LDH release cytotoxicity (3.17809 µM): -1.3 ± 1.6%; LDH release cytotoxicity (10.05 µM): -0.416 ± 3.4%; LDH release cytotoxicity (31.7809 µM): 0.0852 ± 1.8%; LDH release cytotoxicity (100.5 µM): -0.23 ± 1.1%
O=NN(c1ccccc1)c1ccccc1 [N-Nitrosodiphenylamine]	-1.74 ± 0.78	-0.497 ± 0.4	-1.57 ± 1.3	-1.63 ± 0.68	-0.54 ± 0.41	-0.535 ± 0.14	1.3 ± 1.2	15.9 ± 4.8	–
